# Source: PMC7807051, “Modulation of cAMP metabolism for CFTR potentiation in human airway epithelial cells” (Scientific Reports, 2021)
# Where two headings read alike, the source gives them in different places.
# What was measured:
# [1] = biological target: T1, ABCC4 (Homo sapiens, UniProt O15439); assay: In vitro extracellular cAMP assay of ABCC4 inhibitors in Calu-3 cells; format: cell-based; conditions: IBMX 20 μM pre-treatment, forskolin 10 μM, normalized to IBMX + forskolin, read-out: half maximal inhibitory concentration (IC50), extracellular cAMP
# T1 construct: ABCC4 was present in both HBEC6-KT and Calu-3 cells at all-time points, indicated by the bands present at 150 kDa; endogenous in cells; host or cells: HBEC6-KT (immortalized human bronchial epithelial cells)
# T1 sequence (O15439 1-1325): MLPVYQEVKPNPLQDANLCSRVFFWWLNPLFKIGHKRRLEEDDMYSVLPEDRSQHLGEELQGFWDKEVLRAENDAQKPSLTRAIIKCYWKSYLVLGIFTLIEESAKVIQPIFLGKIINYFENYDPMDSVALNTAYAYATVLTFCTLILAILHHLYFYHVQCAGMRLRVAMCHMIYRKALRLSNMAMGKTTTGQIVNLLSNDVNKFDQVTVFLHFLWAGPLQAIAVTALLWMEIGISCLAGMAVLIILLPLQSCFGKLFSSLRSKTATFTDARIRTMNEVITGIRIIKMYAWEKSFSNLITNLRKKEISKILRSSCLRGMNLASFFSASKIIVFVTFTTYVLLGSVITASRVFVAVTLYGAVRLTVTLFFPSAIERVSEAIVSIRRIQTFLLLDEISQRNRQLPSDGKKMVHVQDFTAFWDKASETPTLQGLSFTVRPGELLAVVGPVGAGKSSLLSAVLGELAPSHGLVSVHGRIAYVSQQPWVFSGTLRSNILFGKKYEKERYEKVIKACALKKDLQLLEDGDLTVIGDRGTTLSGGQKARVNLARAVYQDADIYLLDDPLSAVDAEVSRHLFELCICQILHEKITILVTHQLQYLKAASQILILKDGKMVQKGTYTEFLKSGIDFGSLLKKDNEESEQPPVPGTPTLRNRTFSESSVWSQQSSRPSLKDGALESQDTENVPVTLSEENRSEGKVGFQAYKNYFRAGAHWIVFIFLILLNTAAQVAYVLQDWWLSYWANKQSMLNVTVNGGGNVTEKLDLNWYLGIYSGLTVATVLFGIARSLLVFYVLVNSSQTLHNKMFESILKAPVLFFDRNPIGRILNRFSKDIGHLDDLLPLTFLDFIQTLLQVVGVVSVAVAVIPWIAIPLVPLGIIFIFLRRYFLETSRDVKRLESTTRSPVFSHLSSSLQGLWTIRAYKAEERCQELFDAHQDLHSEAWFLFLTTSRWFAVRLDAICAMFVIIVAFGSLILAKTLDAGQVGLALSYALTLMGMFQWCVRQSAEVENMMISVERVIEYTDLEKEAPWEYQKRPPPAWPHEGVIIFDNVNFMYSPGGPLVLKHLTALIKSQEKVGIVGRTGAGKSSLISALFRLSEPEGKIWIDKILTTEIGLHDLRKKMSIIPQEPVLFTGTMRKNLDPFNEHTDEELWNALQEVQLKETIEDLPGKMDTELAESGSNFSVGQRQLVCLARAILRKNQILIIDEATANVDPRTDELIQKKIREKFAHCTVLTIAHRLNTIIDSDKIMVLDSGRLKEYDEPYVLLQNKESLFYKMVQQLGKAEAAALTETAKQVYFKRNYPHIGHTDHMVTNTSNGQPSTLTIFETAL
# Experimental: Cell culture supernatants were assessed for cAMP levels 24 h post-treatment.
# (§2) Cells were pretreated with IBMX (20 μM) for 2 h prior to experimental conditions. After the pre-treatment of IBMX, cells were treated with ABCC4 inhibitors (0.01–100 μM) or DMSO for 30 min. Following these exposures, the cells were treated with forskolin (10 μM) for 6 h and cell-culture supernatants were collected for analysis of extracellular cAMP. The negative control was IBMX alone and the positive control was IBMX and forskolin.
# (§3) For the in vitro extracellular cAMP assay, values were normalized to the positive control (IBMX and forskolin) and the half maximal inhibitory concentration (IC50) was determined. SD was calculated using data from biological replicates (n = 4–5).
# [2] = biological target: T1, ABCC4; assay: In vitro extracellular cAMP assay of ABCC4 inhibitors in HBEC6-KT cells; format: cell-based; conditions: IBMX 20 μM pre-treatment, forskolin 10 μM, normalized to IBMX + forskolin, read-out: half maximal inhibitory concentration (IC50), extracellular cAMP
# Experimental: as §2, §3
# Cell culture supernatants were assessed for cAMP levels 24h post-treatment.
# [3] = tested on: CFTR; assay: In vitro CFTR membrane potential assay in Calu-3 cells; format: cell-based, human; conditions: for EC50: Calu-3 cells, cAMP inducer alone
# Experimental: (§1) An in vitro CFTR membrane potential assay was performed on Calu-3 cells and primary human bronchial epithelial cells, from two independent donors, cultured at 37 °C as previously described. All human samples were collected from consented individuals under ethics approval granted by Hamilton Integrated Research Ethics Board (Project Number 5099-T).
# Calu-3 cells were grown for 21 days on 96-well plates and primary HBECs were grown for 14 days under air–liquid interface conditions on collagen-coated (Sigma-Aldrich) 6.5 mm Transwell Inserts (Corning). All cells were washed with HBSS prior to experimental conditions. After washing with HBSS, cells were loaded with BLUE Membrane Potential Dye (Molecular Devices, #R8042) dissolved in 37 °C chloride-free buffer (NMDG Gluconate Buffer – 150 mM NMDG-gluconate, 3 mM KCl, 10 mM HEPES, pH 7.35, 300 mOsm). Immediately after dye loading, CFTR activity measurements were taken. CFTR activity measurements are fluorescent readouts for detecting ion channel activity. CFTR inhibition was performed with CFTRinh-172 (10 μM) for all experiments to attribute changes in fluorescence as CFTR channel activity. This assay has been validated using proof of concept studies where results obtained from this assay were able to recapitulate findings obtained from direct measurements of ion channel activity using Ussing chambers. At the end of this assay, raw data was exported for statistical analysis.
# For Calu-3 cells, measurements were taken during baseline (40 min), cAMP elevation (30 min), and CFTR inhibition (20 min). cAMP elevation was performed using forskolin or isoproterenol (0.0005–50 μM). For assays with ABCC4 or PDE-4 inhibitors, a pre-incubation with the inhibitors (30 min) in the plate reader was performed prior to cAMP elevation. CFTR modulator VX-770 was used at 1 μM. CFTR activity was determined by dividing a single membrane potential peak measurement after the ABCC4 or PDE-4 inhibition and cAMP elevation additions to the stabilized baseline over DMSO control.
# For in vitro CFTR membrane potential assays, in Calu-3 cells, values were normalized to the averaged baseline over averaged vehicle (DMSO) control of all biological replicates. SD was calculated using data from biological replicates (n = 4–8). An area under the curve (AUC), half-maximal concentration (EC50), […] (Emax), and baseline analysis was performed for each individual replicate then averaged together. The AUC analysis is an aggregate measure of sensitivity and maximal response, allowing for the observation of the total net responsiveness of the cells. The AUC analysis was done by normalizing the individual replicates to the bottom most value of the averaged vehicle control. In primary HBECs, six independent measurements were taken within a single Transwell insert. The value is the average of at least six measurements. These values were normalized to the averaged baseline over the averaged vehicle (DMSO) control. SD was calculated by treating the six measurements as independent, with additional technical replicates (n = 6–18). An AUC and max peak analysis were performed for each measurement, then averaged together. The max peak analysis was the max CFTR activity achieved during the drug addition step.
# In order to compare the independent experiments performed, a fold-change analysis using individual AUC, EC50, and Emax, determined from their respective concentration–response curves, was performed and was normalized to the averaged DMSO vehicle control. A one-way ANOVA with subsequent post-hoc test or a paired t-test was performed. Statistical analysis was performed using GraphPad Prism 6.
# [4] = biological target: T2, CFTR (Homo sapiens, UniProt P13569); assay: In vitro CFTR membrane potential assay in primary human bronchial epithelial cells (air–liquid interface); format: cell-based; conditions: primary HBECs, one donor sample; forskolin 10 μM; VX-770 1 μM, MK-571 1.8 μM, Roflumilast 1 μM
# T2 construct: endogenous in cells; host or cells: primary human bronchial epithelial cells from two donors, air–liquid interface
# T2 sequence (P13569 whole entry): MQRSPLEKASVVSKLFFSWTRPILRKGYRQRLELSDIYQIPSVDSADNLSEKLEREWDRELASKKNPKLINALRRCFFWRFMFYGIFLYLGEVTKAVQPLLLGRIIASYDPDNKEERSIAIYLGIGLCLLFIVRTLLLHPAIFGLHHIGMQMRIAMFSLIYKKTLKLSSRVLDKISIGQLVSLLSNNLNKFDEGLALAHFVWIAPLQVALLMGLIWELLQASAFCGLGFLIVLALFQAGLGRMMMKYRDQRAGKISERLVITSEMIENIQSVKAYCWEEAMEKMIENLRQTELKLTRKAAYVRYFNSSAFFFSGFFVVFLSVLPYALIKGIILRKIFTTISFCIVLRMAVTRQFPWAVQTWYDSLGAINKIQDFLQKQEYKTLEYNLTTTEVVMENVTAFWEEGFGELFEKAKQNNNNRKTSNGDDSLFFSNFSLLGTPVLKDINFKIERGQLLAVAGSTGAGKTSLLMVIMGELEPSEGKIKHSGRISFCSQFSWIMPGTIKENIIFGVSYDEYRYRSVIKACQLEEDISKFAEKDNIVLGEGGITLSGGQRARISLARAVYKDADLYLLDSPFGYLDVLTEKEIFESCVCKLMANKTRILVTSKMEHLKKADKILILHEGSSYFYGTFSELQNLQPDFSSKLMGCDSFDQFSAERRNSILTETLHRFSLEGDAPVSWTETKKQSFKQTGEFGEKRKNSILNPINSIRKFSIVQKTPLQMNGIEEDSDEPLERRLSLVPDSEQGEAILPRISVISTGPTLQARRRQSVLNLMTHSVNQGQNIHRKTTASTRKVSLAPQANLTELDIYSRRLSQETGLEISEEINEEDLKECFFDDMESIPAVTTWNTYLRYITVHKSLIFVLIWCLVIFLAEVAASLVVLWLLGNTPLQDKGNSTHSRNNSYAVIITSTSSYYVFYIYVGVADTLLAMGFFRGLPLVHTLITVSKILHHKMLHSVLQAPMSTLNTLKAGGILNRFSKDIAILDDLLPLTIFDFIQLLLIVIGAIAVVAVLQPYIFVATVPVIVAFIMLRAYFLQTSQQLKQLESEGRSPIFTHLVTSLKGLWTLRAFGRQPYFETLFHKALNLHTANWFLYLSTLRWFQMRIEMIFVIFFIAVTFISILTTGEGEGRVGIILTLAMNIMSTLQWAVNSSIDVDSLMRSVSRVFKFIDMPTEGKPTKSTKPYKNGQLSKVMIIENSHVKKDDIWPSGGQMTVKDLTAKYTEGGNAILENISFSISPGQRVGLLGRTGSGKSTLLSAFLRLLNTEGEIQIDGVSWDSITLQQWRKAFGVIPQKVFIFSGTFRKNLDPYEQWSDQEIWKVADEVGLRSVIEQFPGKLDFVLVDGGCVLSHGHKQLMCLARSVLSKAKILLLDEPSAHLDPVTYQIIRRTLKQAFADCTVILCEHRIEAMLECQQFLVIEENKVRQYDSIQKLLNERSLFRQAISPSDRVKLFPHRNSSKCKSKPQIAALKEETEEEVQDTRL
# Experimental: as §1
# Calu-3 cells were grown for 21 days on 96-well plates and primary HBECs were grown for 14 days under air–liquid interface conditions on collagen-coated (Sigma-Aldrich) 6.5 mm Transwell Inserts (Corning). All cells were washed with HBSS prior to experimental conditions. […] CFTR activity measurements are fluorescent readouts for detecting ion channel activity. CFTR inhibition was performed with CFTRinh-172 (10 μM) for all experiments to attribute changes in fluorescence as CFTR channel activity. […]
# For primary HBECs, measurements were taken during baseline (8 min), drug additions (40 min), and CFTR inhibitions (18 min). cAMP elevation was performed using forskolin (10 μM). […] CFTR activity was determined by averaging six independent measurements within a single Transwell insert. […]
# For in vitro CFTR membrane potential assays, in Calu-3 cells, values were normalized to the averaged baseline over averaged vehicle (DMSO) control of all biological replicates. SD was calculated using data from biological replicates (n = 4–8). […]
# [5] = tested on: CFTR; parameters: method as in PMID 24106801; conditions: primary non-CF HBECs; cited from earlier work
# [6] = tested on: CFTR; parameters: method as in PMID 24106801; conditions: Calu-3 cells; cited from earlier work
# [7] = Calu-3, forskolin (FSK) curve with agent vs DMSO control
# [8] = Calu-3, forskolin (FSK) curve with agent vs DMSO control, VX-770 1 μM, MK-571 1.8 μM, Ceefourin-1 4.8 μM, Roflumilast 1 μM, Rolipram 10 μM, IBMX 100 μM
# [9] = Calu-3, isoproterenol (ISO) curve with agent vs DMSO control
# [10] = Calu-3, isoproterenol (ISO) curve with agent vs DMSO control, same agent concentrations as E5
# [11] = read-out: half maximal effective concentration (EC50), CFTR activity
IC50 [1],IC50 [2],"EC50 [3, 11]","EC50 ([3]; value in picture, no unit, read-out: EC50, CFTR activity (Figure 3))",AUC of CFTR activity time course compared with VX-770 alone [4],max peak of CFTR activity compared with VX-770 alone [4],SMILES,"Baseline of concentration–response curve, CFTR activity [3, 7]","EC50 of concentration–response curve, CFTR activity [3, 7]","Emax of concentration–response curve, CFTR activity [3, 7]","AUC of concentration–response curve, CFTR activity [3, 8]","Baseline of concentration–response curve, CFTR activity [3, 9]","EC50 of concentration–response curve, CFTR activity [3, 9]","Emax of concentration–response curve, CFTR activity [3, 9]","AUC of concentration–response curve, CFTR activity [3, 10]","maximal degree of change for CFTR activity ([3]; Calu-3, ISO compared with FSK, inducers alone)",CFTR activation [5],CFTR potentiation beyond max FSK stimulation [6]
700 nM,4800 nM,–,–,–,–,Cn1c(CSc2nc3ccccc3s2)n[nH]c1=S [Ceefourin-1],No combination of ABCC4 inhibitor and cAMP-elevating agent changed CFTR activity,No combination of ABCC4 inhibitor and cAMP-elevating agent changed CFTR activity,No combination of ABCC4 inhibitor and cAMP-elevating agent changed CFTR activity,No combination of ABCC4 inhibitor and cAMP-elevating agent changed CFTR activity,No combination of ABCC4 inhibitor and cAMP-elevating agent changed CFTR activity,No combination of ABCC4 inhibitor and cAMP-elevating agent changed CFTR activity,No combination of ABCC4 inhibitor and cAMP-elevating agent changed CFTR activity,No combination of ABCC4 inhibitor and cAMP-elevating agent changed CFTR activity,–,–,–
–,–,190 nM,–,–,–,"C=C[C@@]1(C)CC(=O)[C@]2(O)[C@@]3(C)[C@@H](O)CCC(C)(C)[C@@H]3[C@H](O)[C@H](OC(C)=O)[C@@]2(C)O1 [FSK, forskolin]",–,–,–,–,–,–,–,–,–,–,–
–,–,–,–,–,–,CC(C)Cn1c(=O)n(C)c(=O)c2[nH]cnc21 [IBMX],–,–,–,Significant increases,significant increases,–,–,Significant increases,–,–,–
–,–,70 nM,66 nM,–,–,"CC(C)NCC(O)c1ccc(O)c(O)c1 (stereo not drawn) [ISO, isoproterenol]",–,–,–,–,–,–,–,–,greater,–,–
–,–,–,–,–,–,CN(C)C(=O)CCSC(SCCC(=O)O)c1cccc(/C=C/c2ccc3ccc(Cl)cc3n2)c1 (stereo not drawn) [MK-571],No combination of ABCC4 inhibitor and cAMP-elevating agent changed CFTR activity,No combination of ABCC4 inhibitor and cAMP-elevating agent changed CFTR activity,No combination of ABCC4 inhibitor and cAMP-elevating agent changed CFTR activity,No combination of ABCC4 inhibitor and cAMP-elevating agent changed CFTR activity,No combination of ABCC4 inhibitor and cAMP-elevating agent changed CFTR activity,No combination of ABCC4 inhibitor and cAMP-elevating agent changed CFTR activity,No combination of ABCC4 inhibitor and cAMP-elevating agent changed CFTR activity,No combination of ABCC4 inhibitor and cAMP-elevating agent changed CFTR activity,–,–,–
–,–,–,–,significantly greater than VX-770 alone,significantly greater than VX-770 alone,O=C(Nc1c(Cl)cncc1Cl)c1ccc(OC(F)F)c(OCC2CC2)c1 [Roflumilast],not different,not different,not different,not FSK,not different,not different,not different,significant increases,–,led to CFTR activation,did not potentiate CFTR activity beyond the max stimulation that resulted from the addition of FSK
–,–,–,–,–,–,COc1ccc(C2CNC(=O)C2)cc1OC1CCCC1 (stereo not drawn) [Rolipram],not different,not different,not different,not FSK,not different,not different,not different,significant increases,–,–,–
